Molecules are shown by their SMILES. Where a name gives a salt, the structure may show the parent alone. Read-outs that look alike come from different tables or passages of the source.

The target in assay [1] is T1, FLT3 (Homo sapiens, UniProt P36888).
T1 construct: made in house
T1 sequence (P36888 27-993): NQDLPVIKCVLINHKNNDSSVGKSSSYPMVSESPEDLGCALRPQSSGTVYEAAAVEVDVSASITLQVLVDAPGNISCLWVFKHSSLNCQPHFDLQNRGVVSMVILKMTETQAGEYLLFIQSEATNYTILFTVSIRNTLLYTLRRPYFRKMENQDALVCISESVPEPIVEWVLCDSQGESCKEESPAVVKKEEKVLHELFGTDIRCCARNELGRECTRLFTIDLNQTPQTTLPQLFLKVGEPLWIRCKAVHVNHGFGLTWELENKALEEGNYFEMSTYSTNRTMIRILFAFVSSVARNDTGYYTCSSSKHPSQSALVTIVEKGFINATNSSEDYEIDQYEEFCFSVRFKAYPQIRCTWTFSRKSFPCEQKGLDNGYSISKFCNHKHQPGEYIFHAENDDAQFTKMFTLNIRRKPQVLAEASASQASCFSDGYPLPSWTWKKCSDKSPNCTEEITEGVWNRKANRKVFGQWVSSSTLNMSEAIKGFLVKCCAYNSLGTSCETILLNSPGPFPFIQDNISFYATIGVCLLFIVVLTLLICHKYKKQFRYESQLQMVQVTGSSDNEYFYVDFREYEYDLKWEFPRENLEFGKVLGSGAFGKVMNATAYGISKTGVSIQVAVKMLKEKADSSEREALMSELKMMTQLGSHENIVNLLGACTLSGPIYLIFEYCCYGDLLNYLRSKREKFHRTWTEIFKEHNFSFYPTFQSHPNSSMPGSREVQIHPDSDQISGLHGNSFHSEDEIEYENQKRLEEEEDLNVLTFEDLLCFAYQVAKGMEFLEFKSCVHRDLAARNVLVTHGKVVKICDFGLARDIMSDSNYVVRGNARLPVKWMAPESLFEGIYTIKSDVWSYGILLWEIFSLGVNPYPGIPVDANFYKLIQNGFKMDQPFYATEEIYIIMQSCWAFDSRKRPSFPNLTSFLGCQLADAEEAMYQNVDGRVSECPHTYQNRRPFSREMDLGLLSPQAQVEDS
As to the kind of experiment: Binding constant (Kd) measurement, phage-displayed kinase competition binding assay, FLT3. Here is the method: (§1) Binding Constant (Kd) Measurements for Small-Molecule-Kinase Interactions
(§2) By testing across a large class of protein kinases, specificity of the kinase inhibitors provided herein is also determined. The components of the assays include various human kinases expressed as fusions to T7 bacteriophage particles and immobilized ligands that bind to the ATP site of the kinases. […] If the test compound binds the kinase, it competes with the immobilized ligand and prevents binding to the solid support. […] The results are read out by quantitating the amount of fusion protein bound to the solid support, which is accomplished by either traditional phage plaque assays or by quantitative PCR (qPCR) using the phage genome as a template.

For assay [2], the system named is MV4-11 cells. Description: Cellular proliferation assay (MTS), MV4-11. The assay is classed as cell-based. The following applies: Homo sapiens; MV4-11 cells, 72 hour incubation, MTS; read-out: Cellular Assay MV-proliferation IC50. From the text: Cellular Proliferation Assay
Cancer cell viability and proliferation can be evaluated using a tetrazolium salt reduction cell-based assay. In viable cells, this colorimetric assay can measure mitochondrial reduction of a tetrazolium component (MTS) into an […] formazan product.
This cell line was used to determine the ability of the compounds provided herein to inhibit Flt3 in intact cells. The RS4-11 cell line, which expresses the wild-type (WT) receptor, is also used as a control to verify the test compound's ability to inhibit the FLT3 receptor containing the ITD mutation.
MV4-11 cells were plated at 10,000 cells per well in DMEM medium with 0.5% serum. RS4-11 cells were plated at 20,000 cells per well in RPMI with 0.5% serum. […] An aliquot from each well of the compound plate was transferred to the plated cells and then incubated @ 37° C. in 5% CO2 (for 3 days for the MV4-11 cells, 2 days for the RS4-11 cells).
MTS tetrazolium compound (Owen's reagent) was thawed in a H2O bath. 20 μl of MTS tetrazolium was added to each well of optical plate and the cells were incubated @ 37° C. in 5% CO2 for 2 hours.

The target of assay [3] is T2, KIT (Homo sapiens, UniProt P10721).
T2 construct: made in house
As to the kind of experiment: Binding constant (Kd) measurement, phage-displayed kinase competition binding assay, KIT. The protocol:
as §1, §2

Assay [4] concerns the target T3, CSF1R (Homo sapiens, UniProt P07333).
T3 construct: made in house
Description: Binding constant (Kd) measurement, phage-displayed kinase competition binding assay, CSF1R. Here is the method:
as §1, §2

[5] abbreviates: read-out: Binding Assay FLT3 Kd.

T3 sequence (P07333 20-972): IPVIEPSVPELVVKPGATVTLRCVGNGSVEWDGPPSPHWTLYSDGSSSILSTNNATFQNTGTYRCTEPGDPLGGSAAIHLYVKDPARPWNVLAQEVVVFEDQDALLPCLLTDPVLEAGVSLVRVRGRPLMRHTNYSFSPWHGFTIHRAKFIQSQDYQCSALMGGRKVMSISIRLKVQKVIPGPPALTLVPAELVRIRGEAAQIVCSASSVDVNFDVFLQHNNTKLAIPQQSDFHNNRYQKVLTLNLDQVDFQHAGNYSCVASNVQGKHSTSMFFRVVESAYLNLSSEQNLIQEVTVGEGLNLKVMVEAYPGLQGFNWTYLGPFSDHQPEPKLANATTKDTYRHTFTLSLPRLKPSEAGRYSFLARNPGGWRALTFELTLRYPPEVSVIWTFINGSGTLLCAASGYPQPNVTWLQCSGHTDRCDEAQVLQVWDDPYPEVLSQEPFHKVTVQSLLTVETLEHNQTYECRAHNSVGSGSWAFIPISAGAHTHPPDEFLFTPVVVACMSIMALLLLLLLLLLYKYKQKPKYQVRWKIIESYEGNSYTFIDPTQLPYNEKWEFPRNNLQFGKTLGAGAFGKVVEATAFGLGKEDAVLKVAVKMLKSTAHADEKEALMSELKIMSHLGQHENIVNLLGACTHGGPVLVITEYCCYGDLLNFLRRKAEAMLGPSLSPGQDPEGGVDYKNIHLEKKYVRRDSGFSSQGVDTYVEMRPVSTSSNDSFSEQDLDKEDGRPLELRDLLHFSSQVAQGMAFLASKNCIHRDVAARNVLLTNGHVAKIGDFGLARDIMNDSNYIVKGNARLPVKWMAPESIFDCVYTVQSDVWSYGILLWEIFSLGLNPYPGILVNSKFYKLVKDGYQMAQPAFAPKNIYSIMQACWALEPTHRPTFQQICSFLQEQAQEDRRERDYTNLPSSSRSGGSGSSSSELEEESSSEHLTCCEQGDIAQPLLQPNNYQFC
T2 sequence (P10721 26-976): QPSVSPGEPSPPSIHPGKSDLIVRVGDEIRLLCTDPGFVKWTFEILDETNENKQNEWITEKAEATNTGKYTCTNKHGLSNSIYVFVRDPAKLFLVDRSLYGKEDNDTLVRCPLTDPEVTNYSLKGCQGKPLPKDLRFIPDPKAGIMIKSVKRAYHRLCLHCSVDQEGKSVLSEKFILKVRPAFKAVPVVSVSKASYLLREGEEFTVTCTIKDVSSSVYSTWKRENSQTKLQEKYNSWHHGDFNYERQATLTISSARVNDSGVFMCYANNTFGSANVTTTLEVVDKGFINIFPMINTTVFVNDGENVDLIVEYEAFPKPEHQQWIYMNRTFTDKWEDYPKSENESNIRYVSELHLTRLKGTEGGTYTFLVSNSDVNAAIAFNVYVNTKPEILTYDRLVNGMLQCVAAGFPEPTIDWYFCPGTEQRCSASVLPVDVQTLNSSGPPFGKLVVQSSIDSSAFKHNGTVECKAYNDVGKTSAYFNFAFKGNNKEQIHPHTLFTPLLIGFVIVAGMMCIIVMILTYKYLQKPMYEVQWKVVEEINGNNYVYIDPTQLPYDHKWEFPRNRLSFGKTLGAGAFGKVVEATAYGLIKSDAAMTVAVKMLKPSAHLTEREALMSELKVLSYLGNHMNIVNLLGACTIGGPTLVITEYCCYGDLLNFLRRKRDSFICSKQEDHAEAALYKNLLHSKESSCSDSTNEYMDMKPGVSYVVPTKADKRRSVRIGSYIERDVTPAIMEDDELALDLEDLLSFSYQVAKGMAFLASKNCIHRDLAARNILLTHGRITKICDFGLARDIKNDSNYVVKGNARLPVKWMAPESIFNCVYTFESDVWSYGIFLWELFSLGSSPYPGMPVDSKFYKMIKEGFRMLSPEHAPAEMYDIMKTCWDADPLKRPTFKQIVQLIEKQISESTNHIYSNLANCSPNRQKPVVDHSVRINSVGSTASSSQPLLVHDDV

In general, Kd refers to the constant that tells how readily two partners part at equilibrium. In the case of `CC(C)(C)c1cc(NC(=O)Nc2ccc(-c3cn4c(n3)sc3cc(CN5CCCCC5)ccc34)cc2)no1` [Compound D10, 1-(5-tert-Butyl-isoxazol-3-yl)-3-[4-(7-piperidin-1-ylmethyl-imidazo[2,1-b][1,3]benzothiazol-2-yl)-phenyl]urea hydrochloride], the Kd in assay [1] is < 10 nM; in assay [3], < 10 nM; in assay [4] it was 10 to 100 nM. For the same compound, the IC50 in assay [2] was < 10 nM.
Take `CC(C)(C)c1cc(NC(=O)Nc2ccc(-c3cn4c(n3)sc3cc(OCCCN5CCOCC5)ccc34)cc2)no1` [Compound B7, 1-(5-tert-butyl-isoxazol-3-yl)-3-{4-[7-(3-morpholin-4-yl-propoxy)-benzo[d]imidazo[2,1-b]thiazol-2-yl]-phenyl}-urea hydrochloride]: the Kd is < 10 nM in assay [1] (setting [5]), 10 to 100 nM in assay [3] and 10 to 100 nM in assay [4]. Besides, in assay [2], the IC50 was < 10 nM.
As to `CC(C)(C)c1cc(NC(=O)Nc2ccc(-c3cn4c(n3)sc3cc(CCCN5CCCCC5)ccc34)cc2)no1` [Compound D4, N-(5-tert-Butyl-isoxazol-3-yl)-N′-{4-[7-(3-piperidin-1-yl-propyl)imidazo[2,1-b][1,3]benzothiazol-2-yl]phenyl}urea hydrochloride], the Kd is < 10 nM in assay [1], 10 to 100 nM in assay [3] and 10 to 100 nM in assay [4]. Further, the IC50 in assay [2] was < 10 nM.
`CN(C(=O)Nc1cc(C(C)(C)C)on1)c1ccc(-c2cn3c(n2)sc2cc(CCCN4CCOCC4)ccc23)cc1` [Compound D2, 3-(5-tert-Butyl-isoxazol-3-yl)-1-methyl-1 {4-[7-(3-morpholin-4-yl-propyl)-benzo[d]imidazo[2,1-b]thiazol-2-yl]-phenyl}-urea]: the Kd was 10 to 100 nM in assay [1] (setting [5]), < 10 nM in assay [3] and 10 to 100 nM in assay [4]. For the same compound, in assay [2], the IC50 fell in the range of 10 to 100 nM.
Turning to `CC(C)(C)c1cc(NC(=O)Nc2ccc(-c3cn4c(n3)sc3cc(OCCCN5CCSCC5)ccc34)cc2)no1` [Compound B8, 1-(5-tert-Butyl-isoxazol-3-yl)-3-{4-[7-(3-thiomorpholin-4-yl-propoxy)-benzo[d]imidazo[2,1-b]thiazol-2-yl]-phenyl}-urea], the Kd in assay [1] is < 10 nM; in assay [3], 10 to 100 nM; in assay [4], 10 to 100 nM. Further, the IC50 in assay [2] was 10 to 100 nM.
With `CC(C)(C)c1cc(NC(=O)Nc2ccc(-c3cn4c(n3)sc3cc(CCC(=O)NCCN5CCCC5)ccc34)cc2)no1` [Compound C11, 3-(2-{4-[3-(5-tert-butyl-isoxazol-3-yl)-ureido]-phenyl}-benzo[d]imidazo[2,1-b]thiazol-7-yl)-N-(2-pyrrolidin-1-yl-ethyl)-propionamide hydrochloride], the Kd in assay [1], in assay [3] and in assay [4] was < 10 nM throughout. The IC50 in assay [2] was < 10 nM.
For the compound `CC(C)(C)c1cc(NC(=O)Nc2ccc(-c3cn4c(n3)sc3cc(CN5CCOCC5)ccc34)cc2)no1` [Compound D8, 1-(5-tert-Butyl-isoxazol-3-yl)-3-[4-(7-morpholin-4-ylmethyl-imidazo[2,1-b][1,3]benzothiazol-2-yl)-phenyl]-urea hydrochloride], the figures for the dissociation constant Kd in assay [1], in assay [3] and in assay [4] were < 10 nM, < 10 nM and 10 to 100 nM, respectively. For the same compound, the IC50 in assay [2] was < 10 nM.
Consider `CC(C)(C)c1cc(NC(=O)Nc2ccc(-c3cn4c(n3)sc3cc(CCC(=O)O)ccc34)cc2)no1` [Compound C4, 3-{2-[4-({[(5-tert-butylisoxazol-3-yl)amino]carbonyl}amino)phenyl]imidazo[2,1-b][1,3]benzothiazol-7-yl}propanoic acid], for which the Kd in assay [1] (setting [5]) was < 10 nM; in assay [3] it was < 10 nM; in assay [4] it was 10 to 100 nM. For the same compound, the IC50 in assay [2] is < 10 nM.
Consider `CCN(CC)CCNC(=O)c1ccc2c(c1)sc1nc(-c3ccc(NC(=O)Nc4cc(C(C)(C)C)on4)cc3)cn12` [Compound C22, 2-{4-[3-(5-tert-butyl-isoxazol-3-yl)-ureido]-phenyl}-imidazo[2,1-b][1,3]benzothiazole-7-carboxylic acid (2-diethylamino-ethyl)-amide hydrochloride], for which the Kd in assay [1] is < 10 nM; in assay [3], < 10 nM; in assay [4], 10 to 100 nM. Also, in assay [2], the IC50 was < 10 nM.
On to `CCN(CC)C(=O)CCc1ccc2c(c1)sc1nc(-c3ccc(NC(=O)Nc4cc(C(C)(C)C)on4)cc3)cn12` [Compound C8, 3-(2-{4-[3-(5-tert-butyl-isoxazol-3-yl)-ureido]-phenyl}-benzo[d]imidazo[2,1-b]thiazol-7-yl)-N,N-diethyl-propionamide], for which the Kd in assay [1] was < 10 nM; in assay [3], < 10 nM; in assay [4] it was 10 to 100 nM. The IC50 in assay [2] was < 10 nM.
`O=C(Cc1noc2ccccc12)Nc1ccc(-c2cn3c(n2)sc2cc(OCCN4CCOCC4)ccc23)cc1` [Compound E2, 2-benzo[d]isoxazol-3-yl-N-{4-[7-(2-morpholin-4-yl-ethoxy)-benzo[d]imidazo[2,1-b]thiazol-2-yl]-phenyl}-acetamide]: the values for the Kd in assay [1] (setting [5]), in assay [3] and in assay [4] were < 10 nM, 10 to 100 nM and > 1000 nM, respectively. Moreover, the IC50 in assay [2] is < 10 nM.
As for `CC(C)(C)c1cc(NC(=O)Nc2ccc(-c3cn4c(n3)sc3cc(OCCCN5CCN(S(C)(=O)=O)CC5)ccc34)cc2)no1` [Compound B10, 1-(5-tert-butyl-isoxazol-3-yl)-3-(4-{7-[3-(4-methanesulfonyl-piperazin-1-yl)-propoxy]-benzo[d]imidazo[2,1-b]thiazol-2-yl}-phenyl)-urea], the Kd in assay [1] (setting [5]) was < 10 nM; in assay [3], 10 to 100 nM; in assay [4], 10 to 100 nM. Moreover, the IC50 in assay [2] was < 10 nM.
With `CC(C)(C)c1cc(NC(=O)Nc2ccc(-c3cn4c(n3)sc3cc(C(=O)N5CCNCC5)ccc34)cc2)no1` [Compound C24, 1-(5-tert-butyl-isoxazol-3-yl)-3-{4-[7-(piperazine-1-carbonyl)-imidazo[2,1-b][1,3]benzothiazol-2-yl]-phenyl}-urea hydrochloride], the figures for the Kd in assay [1], in assay [3] and in assay [4] were < 10 nM, < 10 nM and 10 to 100 nM, respectively. In addition, the IC50 in assay [2] is < 10 nM.
Turning to `CC(C)(C)c1cc(NC(=O)Nc2ccc(-c3cn4c(n3)sc3cccc(OCCN5CCOCC5)c34)cc2)no1` [Compound B11, N-(5-tert-butyl-isoxazol-3-yl)-N′-{4-[5-(2-morpholin-4-yl-ethoxy)imidazo[2,1-b][1,3]benzothiazol-2-yl]phenyl}urea hydrochloride], the Kd in assay [1] (setting [5]) was < 10 nM; in assay [3], 10 to 100 nM; in assay [4], 100 to 1000 nM. Further, the IC50 in assay [2] is < 10 nM.
Take `CN1CCN(C(=O)c2ccc3c(c2)sc2nc(-c4ccc(NC(=O)Nc5cc(C(C)(C)C)on5)cc4)cn23)CC1` [Compound C25, 1-(5-tert-butyl-isoxazol-3-yl)-3-{4-[7-(4-methyl-piperazine-1-carbonyl)-imidazo[2,1-b][1,3]benzothiazol-2-yl]-phenyl}-urea hydrochloride]: the values for the Kd in assay [1], in assay [3] and in assay [4] were < 10 nM, < 10 nM and 10 to 100 nM, respectively. In assay [2], the IC50 is < 10 nM.

The values are drawn from US8921546B2, “Imidazolothiazole compounds for the treatment of disease” (Ambit Biosciences Corporation, priority 2006, dated 2014).
